Data set [1] has as its system Rattus norvegicus. Particulars: oral.
Data set [2] concerns Mus musculus. Conditions: oral.
Data set [3] relates to Rattus norvegicus. Conditions: acute.
The subject of data set [4] is Oryctolagus sp. Particulars: acute, dermal.
Data set [5] deals with Rattus norvegicus. Conditions: for LEL / NOEL / NOAEL: oral, M/F; for NOAEL: no effects.
In data set [6] the test system is Rattus norvegicus. Conditions: Hershberger, oral, gavage.
[7] abbreviates: subchronic, duration: 13 weeks, diet, neurological dysfunction.
Where [8] appears, read: chronic, duration: 2 years, diet, reduced body weight.
[9] abbreviates: chronic, duration: 2 years, diet, increased levels of serum proteins and increased liver weight.
Where [10] appears, read: developmental, duration: 16 days, gavage, F, Wistar, Developmental: 20% decrease in serum T4 levels in pups on PND 16/17 + Endocrine: 20-30% decreases in serum T4 levels in dams.
Where [11] appears, read: reproduction developmental, duration: 56 days, gavage, M, Sprague-Dawley, Endocrine: Hypertrophy and hyperplasia of thyroid follicular cells in males.
[12] abbreviates: reproduction developmental, duration: 56 days, gavage, M, Sprague-Dawley, Renal: 31% increase in BUN in males.
Setting [13] is: developmental, duration: 1 days, gavage, M/F, NMRI, Developmental: Altered spontaneous behavior and habituation in adults exposed as neonates.
The mark [14] stands for this setting: developmental, duration: 42 days, gavage, M/F, CD1, Developmental: Decrease in number of pups per litter with no change in pup to implantation site ratio.
[15] abbreviates: reproduction developmental, reduced fertility index and reduced body weight of dams.
Where [16] appears, read: duration: 10 days, Wistar, active + Negative + Antiandrogenic + anti-androgenic.
Where [17] appears, read: developmental, duration: 14 days, gavage, M, NMRI, developmental.
[18] abbreviates: duration: 5 days, Sprague-Dawley, active + Antiandrogenic + anti-androgenic + PPS delayed by 5 days / single dose tested (liver wt?).

Each structure is given as a SMILES string. Values joined by “and” are separate entries in the source; they are usually repeats but may differ in a detail not shown here. Identical values can stand only once. Where only a bound is given, the exact number is not on record here.

As a reminder, the LOAEL is the lowest tested level that showed an adverse finding. By LD50 is commonly meant the dose at which mortality reaches 50%. Read a low LD50 as a more toxic substance. One may read the NOAEL as the highest dose or exposure tested at which no adverse effect was seen.

For the molecule `CCOP(=O)(OCC)OC(=CCl)c1ccc(Cl)cc1Cl` [Chlorfenvinphos], the lowest observed adverse effect level (LOAEL) was 0.7 mg/kg-day in data set [1] (chronic, duration: 104 weeks, diet, M/F, Wistar, neurological); 2.4 mg/kg-day in data set [1] (short-term, duration: 10 days, diet, F, Wistar, neurological); 1.5 mg/kg-day in data set [2] (subchronic, duration: 3 months, M/F, C57BL/6, immunological).
In turn, `CCOP(=S)(S)OCC` [Diethyl dithiophosphoric acid] yielded an LC50 in data set [3] (inhalation) of 1640 mg/m3. Further, the LD50 in data set [3] (oral) is 4510 mg/kg; in data set [4] (New Zealand), above 2000 mg/kg.
Regarding `CC(C)C(C(=O)OC(C#N)c1cccc(Oc2ccccc2)c1)c1ccc(Cl)cc1` (stereo not given) [Fenvalerate], in data set [5] (setting [7]), the LEL turned out to be 7.5 mg/kg-day and the NOEL turned out to be 2.5 mg/kg-day.
For `CN(C)C(=O)Nc1cccc(C(F)(F)F)c1` [Fluometuron], the no-observed-adverse-effect level (NOAEL) in data set [5] (chronic, duration: 103 weeks, diet) is 12.5 mg/kg-day.
In the case of `CN(C)c1nc(=O)n(C2CCCCC2)c(=O)n1C` [Hexazinone], in data set [5] (setting [8]), the LEL was determined as 50 mg/kg-day and the NOEL turned out to be 10 mg/kg-day.
With `Cl` [Hydrochloric acid], the LOAEL in data set [5] (chronic, inhalation, M, hyperplasia of nasal mucosa larynx and trachea) was 15 mg/m3.
In data set [5] (setting [9]), `CC(C)Oc1cc(-n2nc(C(C)(C)C)oc2=O)c(Cl)cc1Cl` [Oxadiazon] showed an LEL of 5 mg/kg-day and an NOEL of 0.5 mg/kg-day.
With `O=S(=O)(O)C(F)(F)C(F)(F)C(F)(F)C(F)(F)C(F)(F)C(F)(F)F` [Perfluorohexanesulfonic acid], the lowest observed adverse effect level (LOAEL) in data set [1] (setting [10]) is 5 mg/kg-day; in data set [1] (developmental, duration: 16 days, gavage, F, Wistar, Developmental: 40% decrease in serum T4 levels in pups on PND 16 + Endocrine: 60% decreases in serum T4 levels in dams), 25 mg/kg-day; in data set [1] (setting [11]), 3 mg/kg-day; in data set [1] (reproduction developmental, duration: 56 days, gavage, M, Sprague-Dawley, Hematological: 6% increase in prothrombin time in males at ?0.3 mg/kg/day / decreases in hemoglobin (4%), hematocrit (3%), and RBC levels (…), 0.3 mg/kg-day; in data set [1] (setting [12]), 10 mg/kg-day; in data set [2] (setting [13]), 9.2 mg/kg-day. Further, the LOAEL worked out at 1 mg/kg-day in data set [2] (setting [14]); 3 mg/kg-day in data set [2] (reproduction developmental, duration: 42 days, gavage, M/F, CD1, Hepatic: Single cell necrosis and microvascular fatty changes at 3 mg/kg/day / centrilobular hepatocellular hypertrophy at ?0.3 mg/kg/day …). In addition, the NOAEL is 0.05 mg/kg-day in data set [1] (setting [10]); 10 mg/kg-day in data set [1] (reproduction developmental, duration: 56 days, gavage, F, Sprague-Dawley, Hematological: 6% increase in prothrombin time in males at ?0.3 mg/kg/day / decreases in hemoglobin (4%), hematocrit (3%), and RBC levels (…); 10 mg/kg-day in data set [1] (reproduction developmental, duration: 56 days, gavage, M/F, Sprague-Dawley, Hepatic: Increased liver weight / centrilobular hepatocellular hypertrophy in males at ?3 mg/kg/day + Immunotoxicological: No histological …); 1 mg/kg-day in data set [1] (setting [11]); 3 mg/kg-day in data set [1] (setting [12]); 45 mg/kg-day and 25 mg/kg-day in data set [1] (short-term, duration: 16 days, gavage, F, Wistar). In addition, the NOAEL in data set [2] (setting [13]) was 6.1 mg/kg-day; in data set [2] (developmental, duration: 42 days, gavage, M/F, CD1), 3 mg/kg-day; in data set [2] (setting [14]) it was 0.3 mg/kg-day; in data set [2] (developmental, duration: 42 days, gavage, M/F, CD1, Hepatic: Single cell necrosis and microvascular fatty changes at 3 mg/kg/day / centrilobular hepatocellular hypertrophy at ?0.3 mg/kg/day …) it was 1 mg/kg-day; in data set [2] (short-term, duration: 7 days, gavage, M, Hepatic: Hepatocellular hypertrophy, steatosis, and increased hepatic triglyceride levels) it was 10 mg/kg-day; in data set [2] (subchronic, duration: 6 weeks, diet, M, Hepatic: Decreased plasma triglyceride, cholesterol, non-HDL cholesterol, and HDL cholesterol levels / increased hepatic triglyceride …) it was 6 mg/kg-day.
`COc1nc(NC(C)C)nc(NC(C)C)n1` [Prometon] came in with an NOAEL in data set [5] (subchronic, diet) of 15 mg/kg-day.
With `O=c1nc([O-])n(Cl)c(=O)n1Cl.[Na+]` [Sodium dichloroisocyanurate], in data set [4], the LD50 was above 2000 mg/kg.
`Clc1cc(Cl)cc(C2(CC(Cl)(Cl)Cl)CO2)c1` (stereo not given) [Tridiphane]: in data set [5] (setting [15]), the LEL was 1.67 mg/kg-day and the NOEL was determined as 0.33 mg/kg-day.
For the molecule `Clc1ccc(C(c2ccc(Cl)cc2)C(Cl)Cl)cc1` [p,p'-DDD], in data set [6] (setting [16]), the LOEL is 200 mg/kg-day and the NOEL came out at 40 mg/kg-day. For the same molecule, in data set [2] (setting [17]), the LOAEL is 0.5 mg/kg-day.
`ClC(Cl)=C(c1ccc(Cl)cc1)c1ccc(Cl)cc1` [p,p'-DDE]: the LOEL in data set [6] (setting [18]) was 100 mg/kg-day; in data set [6] (duration: 7 days, Fischer 344, active + Antiandrogenic + anti-androgenic + PPS delayed by 5 days / single dose tested (liver wt?)), 100 mg/kg-day and 200 mg/kg-day; in data set [6] (duration: 7 days, Long-Evans, active + Antiandrogenic + anti-androgenic + PPS delayed by 5 days / single dose tested (liver wt?)), 100 mg/kg-day; in data set [6] (duration: 7 days, Sprague-Dawley, active + Antiandrogenic + anti-androgenic + PPS delayed by 5 days / single dose tested (liver wt?)), 100 mg/kg-day and 200 mg/kg-day; in data set [6] (duration: 10 days, Sprague-Dawley, active + Negative + Antiandrogenic + anti-androgenic + PPS delayed by 5 days / single dose tested (liver wt?)), 100 mg/kg-day. For the same molecule, the NOEL in data set [6] (setting [18]) is 10 mg/kg-day; in data set [6] (duration: 10 days, Wistar, active + Antiandrogenic + anti-androgenic + PPS delayed by 5 days / single dose tested (liver wt?)), 16 mg/kg-day and 30 mg/kg-day; in data set [6] (duration: 10 days, wistar, active + Antiandrogenic + anti-androgenic + PPS delayed by 5 days / single dose tested (liver wt?)) it was 10 mg/kg-day and 16 mg/kg-day and 30 mg/kg-day. Also, the LOAEL in data set [2] (setting [17]) came to 0.5 mg/kg-day.
